Experiment [1] concerns A687V EZH2 mutant SUP-B8 cell line. As to the kind of experiment: 6-day cell proliferation assay (CellTiter-Glo), SUP-B8. The class given is cell-based, human. How it is done: (§1) FIG. 4. A687V EZH2 mutant ALL is highly dependent on EZH2 activity. A, Sensitivity of ALL cell lines to EZH2 inhibition with GSK126. Cells were treated with a 20-point 2-fold dilution series of GSK126 (range 36 μM-70 pM) for 6 days and cell growth was measured using Cell Titer-Glo (Promega). Data are represented as the concentration of GSK126 required to inhibit 50% of growth (growth IC50). B, Western blot analysis of H3K27me3, H3K27me2, H3K27me1, and total histone H3 following treatment of NALM-6 or SUP-B8 cell lines with varying concentrations of GSK126 for 72 hours.
(§2) FIG. 5. […] Temporal kinetics of GSK126-induced growth inhibition (A and C) and caspase 3/7 activation (B and D) in NALM-6 (A and B) and SUP-B8 (C and D) over a 6 day time course using Cell Titer-Glo or Caspase-Glo 3/7 (Promega), respectively.
The SUP-B8 acute lymphoblastic leukemia cell line which harbors a heterozygous A687V EZH2 mutation was kindly provided by Dr. Ronald Levy (Stanford University) and was maintained in RPMI-1640 media (MediaTech) supplemented with 10% fetal bovine serum (FBS) (Sigma-Aldrich). All other cell lines were obtained from either ATCC or DSMZ and maintained in the recommended cell culture media.
(§3) Cells were evaluated for sensitivity to GSK126 in a 6-day proliferation assay as described previously (McCabe et al., 2012b). Briefly, cells were seeded into 384 well plates at a density that permitted proliferation for 6 days. Cells were then treated in duplicate with a 20-point 2-fold dilution series of GSK126 or 0.147% DMSO. After incubation with compound for 6 days, cell proliferation was evaluated using CellTiter-Glo (Promega) according to the manufacturer's specifications. Data were fit with a 4-parameter equation to generate a concentration response curve and to determine the concentration of GSK126 required to inhibit 50% of growth (gIC50).
(In ATP-based viability assays light output follows the ATP content of the culture.)

In a further experiment the test system is H3K27me3 in SUP-B8 cells. As to the kind of experiment: Western blot analysis of H3K27 methylation after GSK126 treatment. The class given is cell-based, human. As to conditions: SUP-B8 compared with the most sensitive EZH2 WT cell line NALM-6, 72 hours. How it is done:
as §1
Cell lysate preparation and western blotting were performed as previously described (McCabe et al., 2012a). Antibodies utilized included: EZH2 (BD Transduction Labs), histone H3 (Abcam), H3K27me1 (ActiveMotif), H3K27me2 (Cell Signaling Technology), H3K27me3 (Cell Signaling Technology), EED (Santa Cruz), SUZ12 (Cell Signaling Technology), or Actin (Sigma). Histone methylation antibody specificity was previously confirmed using full-length recombinant methylated histones harboring mono-, di-, or tri-methylation at H3K4, H3K9, H3K27, H3K36, and H3K79 (McCabe et al., 2012a).
(Immunoblotting shows a protein as a band on a membrane.)

The test system of experiment [2] is SUP-B8 cells. As to the kind of experiment: Caspase 3/7 assay (Caspase-Glo 3/7), SUP-B8. The class given is cell-based, human. To be noted: SUP-B8, beginning on day 5.
Excerpt: as §2
(§4) For detection of caspase-3/7 activity, Caspase-Glo 3/7 (Promega) was utilized according to the manufacturer's directions. Values were normalized to CellTiter Glo (Promega) levels at each time point and expressed as a percentage of vehicle treated control.

Experiment [3] deals with Y641 and A677 EZH2 mutant DLBCL cell lines. To be noted: many Y641 and A677 EZH2 mutant DLBCL cell lines; previously shown; cited from earlier work.
In experiment [4] the test system is SUP-B8 cells. As to the kind of experiment: Gene expression profiling (Affymetrix U133 Plus 2.0), SUP-B8. The class given is cell-based, human. As to conditions: SUP-B8, 500 nM GSK126, 72 hours. As for the experimental part: (§5) FIG. 6. Activation of gene expression in A687V EZH2, but not WT EZH2, cells. A, Gene expression profiling of SUP-B8 and NALM-6 cells treated for 72 hours with 0.1% DMSO or 500 nM GSK126. […] Green, lower expression. Red, higher expression.
(§6) SUP-B8 and NALM-6 cells (2×10^5/well) were seeded into six-well tissue culture plates 24 hours before treatment with 0.1% DMSO or 500 nM GSK126 for 72 hours. Cells were collected into Trizol reagent (Invitrogen) and total RNA was isolated via phenol:chloroform extraction and the RNeasy kit (Qiagen) according to the manufacturer's instructions. Total RNA was labeled and hybridized to Affymetrix Human Genome U133 Plus 2.0 oligonucleotide microarrays arrays according to the manufacturer's instructions (Affymetrix, Santa Clara, Calif., USA). CEL files were processed and differentially expressed probe sets were determined as described previously (McCabe et al., 2012b). Briefly, significant probe sets were identified after filtering for detection, an average fold-change >2 or <-2, and p-values adjusted for multiple testing correction by FDR (Benjamini Hochberg)<0.1.

Experiment [5] deals with NALM-6 cells. Briefly: Gene expression profiling (Affymetrix U133 Plus 2.0), NALM-6. The class given is cell-based, human. As to conditions: NALM-6, 500 nM GSK126, 72 hours. How it is done: as §5, §6
Experiment [6] has as its system NALM-6 cells. As to the kind of experiment: Growth inhibition time course (CellTiter-Glo), NALM-6. The class given is cell-based, human. To be noted: NALM-6 (EZH2 WT), out to 6 days. As for the experimental part:
as §2, §3

The test system of experiment [7] is NALM-6 cells. As to the kind of experiment: Caspase 3/7 assay (Caspase-Glo 3/7), NALM-6. The class given is cell-based, human. To be noted: NALM-6 (EZH2 WT), out to 6 days.
Excerpt: as §2, §4

The subject of experiment [8] is EZH2 WT cell lines (B cell ALL panel). Briefly: 6-day cell proliferation assay (CellTiter-Glo), EZH2 WT B cell ALL cell lines. The class given is cell-based. As to conditions: Homo sapiens, 144 h, 6 days, range over cell lines, read-out: growth IC50 values. How it is done:
as §1, §3

With `CC[C@H](C)n1cc(C)c2c(C(=O)NCc3c(C)cc(C)[nH]c3=O)cc(-c3ccc(N4CCNCC4)nc3)cc21` [GSK126], the IC50 in experiment [1] (Homo sapiens, 144 h, SUP-B8 (heterozygous A687V EZH2), 6 days, CellTiter-Glo, read-out: dose required to inhibit 50% of cell proliferation (growth IC50)) is 0.441 µM; in [8] it was 2.5 to 7.8 µM. The “growth inhibition over 6 day time course” value in experiment [1] (SUP-B8, after 4 days of treatment, maximal on day 6) is “dose-dependent growth inhibition”; with NALM-6 cells [6] it was “little growth inhibition”. Moreover, in [1] (SUP-B8, day 6), the “doses at which cell number losses were evident” value is “above 100 nM”. In addition, the “demethylation of H3K27me3” value in the experiment with H3K27me3 in SUP-B8 cells was “comparable, or slightly reduced, demethylation of H3K27me3”. Also, the “caspase 3/7 activity” value in the experiment on SUP-B8 cells [2] was “increased in a dose-dependent fashion”. The inhibition of proliferation entry in experiment [3] was “effectively inhibit the proliferation”. For the same compound, the up-regulated probes in the experiment on SUP-B8 cells [4] worked out at 643; with NALM-6 cells [5], 35. For the same compound, the down-regulated probes in the experiment on NALM-6 cells [5] is given as 10. Also, the “activation of caspases 3 or 7” value in the experiment with NALM-6 cells [7] is listed as “no activation of caspases 3 or 7”.

Source of the values: US20160361309A1, “METHODS OF TREATING CANCER PATIENTS RESPONDING TO EZH2 INHIBITOR GSK126” (GLAXOSMITHKLINE INTELLECTUAL PROPERTY (NO.2) LIMITED, priority 2014, published 2016).
